Results published in article PMC12058161, “The plant matrix of Artemisia annua L. for the treatment of malaria: Pharmacodynamic and pharmacokinetic studies” (PLOS One, 2025).
“And” between values parts separate entries of the source, which are not always exact repeats. Identical values can stand only once.

Assays:
[1] = Stability of the five compounds in SD rat plasma (QC samples, UHPLC-ESI-MS/MS); type: in vitro ADME; conditions: for stability, Accuracy (measured versus nominal concentration) / stability, mean ± SD (measured concentration): SD rat plasma, n=5
Procedure: The method was validated according to the US Food and Drug Administration (FDA) Bioanalytical Method Validation Guidance as follows: [1] specificity was assessed by analyzing blank plasma, blank plasma spiked with standard solutions and rat plasma samples after oral administration. Each calibration curve was plotted using the concentration of the standard solution as the horizontal coordinate and the ratio of analyte to internal standard peak area as the vertical coordinate. The lower limit of quantification (LLOQ) refers to the lowest concentration, which is typically 10 times the signal-to-noise ratio. It has an acceptable accuracy of ± 20% and a precision of less than 20% [3]. Quality Control (QC) samples (low, medium and high concentrations) were prepared for each analyte. Five samples were analyzed at each concentration level and three consecutive batches were determined to calculate the accuracy and precision of the method. Extraction recovery was assessed by the ratio of the average peak area of routinely prepared QC samples (low, medium, and high concentrations) to the post-extraction plasma sample. Likewise, matrix effect was assessed by the ratio of peak areas between post-extraction samples spiked with analytes and mobile phases spiked with the same concentration of analytes.

[2] = in vivo; conditions: male, Sprague Dawley, rat, po, 352 mg/kg
[3] = male, Sprague Dawley, rat, in vivo, po, 352 mg/kg
[4] = nominal 20 ng/mL, 3 freeze-thaw cycles
[5] = nominal 20 ng/mL, 7 days at -80°C
[6] = nominal 20 ng/mL, Room temperature 24h
[7] = nominal 1000 ng/mL, 3 freeze-thaw cycles
[8] = nominal 1000 ng/mL, 7 days at -80°C
[9] = nominal 1000 ng/mL, Room temperature 24h
[10] = nominal 5000 ng/mL, 3 freeze-thaw cycles
[11] = nominal 5000 ng/mL, 7 days at -80°C
[12] = nominal 5000 ng/mL, Room temperature 24h

Stability in plasma, measured concentration (mean ± SD) ([1]; 3 freeze-thaw cycles, QC concentration 20 ng/mL): 21.0 ± 1.74 ng/mL and 21.0437 ng/mL | Stability in plasma, measured concentration (mean ± SD) ([1]; 3 freeze-thaw cycles, QC concentration 1000 ng/mL): 942 ± 21.5 ng/mL and 941.9 ng/mL | Stability in plasma, measured concentration (mean ± SD) ([1]; 3 freeze-thaw cycles, QC concentration 5000 ng/mL): 4532 ± 63.0 ng/mL and 4531.84 ng/mL | Stability in plasma, measured concentration (mean ± SD) ([1]; 7 days at -80°C, QC concentration 20 ng/mL): 20.6 ± 1.03 ng/mL and 20.6026 ng/mL | Stability in plasma, measured concentration (mean ± SD) ([1]; 7 days at -80°C, QC concentration 1000 ng/mL): 920 ± 31.6 ng/mL and 920.324 ng/mL | Stability in plasma, measured concentration (mean ± SD) ([1]; 7 days at -80°C, QC concentration 5000 ng/mL): 4563 ± 143 ng/mL and 4562.63 ng/mL | Stability, measured concentration, mean ± SD ([1]; QC sample 20 ng/mL, 3 freeze-thaw cycles): 21.0 ± 1.74 ng/mL | Stability, measured concentration, mean ± SD ([1]; QC sample 20 ng/mL, 7 days at -80°C): 20.6 ± 1.03 ng/mL | Stability, measured concentration, mean ± SD ([1]; QC sample 20 ng/mL, Room temperature 24h): 21.1 ± 0.78 ng/mL | Stability, measured concentration, mean ± SD ([1]; QC sample 1000 ng/mL, 3 freeze-thaw cycles): 942 ± 21.5 ng/mL | Stability, measured concentration, mean ± SD ([1]; QC sample 1000 ng/mL, 7 days at -80°C): 920 ± 31.6 ng/mL | Stability, measured concentration, mean ± SD ([1]; QC sample 1000 ng/mL, Room temperature 24h): 1003 ± 39.5 ng/mL | Stability, measured concentration, mean ± SD ([1]; QC sample 5000 ng/mL, 3 freeze-thaw cycles): 4532 ± 63.0 ng/mL | Stability, measured concentration, mean ± SD ([1]; QC sample 5000 ng/mL, 7 days at -80°C): 4563 ± 143 ng/mL | Stability, measured concentration, mean ± SD ([1]; QC sample 5000 ng/mL, Room temperature 24h): 4765 ± 218 ng/mL | Stability in plasma, measured concentration (mean ± SD) ([1]; Room temperature 24h, QC concentration 20 ng/mL): 21.1 ± 0.78 ng/mL and 21.1244 ng/mL | Stability in plasma, measured concentration (mean ± SD) ([1]; Room temperature 24h, QC concentration 1000 ng/mL): 1002.91 ng/mL and 1003 ± 39.5 ng/mL | Stability in plasma, measured concentration (mean ± SD) ([1]; Room temperature 24h, QC concentration 5000 ng/mL): 4764.7 ng/mL and 4765 ± 218 ng/mL | stability, Accuracy (measured versus nominal concentration) [1, 4]: 105.22% | stability, mean ± SD (measured concentration) [1, 4]: 21.0 ± 1.74 ng/mL | stability, Accuracy (measured versus nominal concentration) [1, 5]: 103.01% | stability, mean ± SD (measured concentration) [1, 5]: 20.6 ± 1.03 ng/mL | stability, Accuracy (measured versus nominal concentration) [1, 6]: 105.62% | stability, mean ± SD (measured concentration) [1, 6]: 21.1 ± 0.78 ng/mL | stability, Accuracy (measured versus nominal concentration) [1, 7]: 94.19% | stability, mean ± SD (measured concentration) [1, 7]: 942 ± 21.5 ng/mL | stability, Accuracy (measured versus nominal concentration) [1, 8]: 92.03% | stability, mean ± SD (measured concentration) [1, 8]: 920 ± 31.6 ng/mL | stability, Accuracy (measured versus nominal concentration) [1, 9]: 100.29% | stability, mean ± SD (measured concentration) [1, 9]: 1003 ± 39.5 ng/mL | stability, Accuracy (measured versus nominal concentration) [1, 10]: 90.64% | stability, mean ± SD (measured concentration) [1, 10]: 4532 ± 63.0 ng/mL | stability, Accuracy (measured versus nominal concentration) [1, 11]: 91.25% | stability, mean ± SD (measured concentration) [1, 11]: 4563 ± 143 ng/mL | stability, Accuracy (measured versus nominal concentration) [1, 12]: 95.29% | stability, mean ± SD (measured concentration) [1, 12]: 4765 ± 218 ng/mL | AUC(0-inf) [2]: 1390 ± 586 ng·h/mL | AUC(0-t) [2]: 990 ± 284 ng·h/mL | Cmax ([2]; Cmax): 222 ± 46.4 ng/mL | MRT last ([2]; MRT(0-t)): 4.34 ± 0.957 h | half-life ([2]; t1/2): 5.14 ± 1.8 h | CL [3]: 0.016 ± 0.006 L/h | Vz [3]: 0.114 ± 0.041 L
SMILES: C=C1CC[C@@H]2[C@H]3[C@@H](CC[C@H]2C)[C@@H](C)C(=O)O[C@H]13 [ARTI, Arteannuin I]
